Reference: patent US9572820B2, “Methods of treating autophagy-associated disorders and related pharmaceutical compositions, diagnostics, screening techniques and kits” (priority 2011, dated 2017)
Non-standard residues stand in square brackets, D forms with d. Residues, ends and D or L forms follow the SMILES beside them. Nle = CCCC[C@H](N)C(=O)O

B1: IL-1α: cytokine used at 20 ng/ml to promote Th17 differentiation (protein, UniProt P01583 113-271, looked up)
Interleukin-1 alpha: SAPFSFLSNVKYNFMRIIKYEFILNDALNQSIIRANDQYLTAAALHNLDEAVKFDMGAYKSSKDDAKITVILRISKTQLYVTAQDEDQPVLLKEMPEIPKTITGSETNLLFFWETHGTKNYFTSVAHPNLFIATKQDYWVCLAGGPPSITDFQILENQA

Assays:
LC3-GFP/RFP HeLa cells [1] = assay: Chemical library screen in the presence of a suboptimal dose of pp242; type: cell-based; details: suboptimal pp242 (~0.06 uM) plus library compound
LC3-GFP/RFP HeLa cells [2] = assay: High-content imaging screen of LC3-GFP/RFP puncta (Cellomics ArrayScan); type: cell-based; details: for modulation of autophagy (agonist/inducer or antagonist/inhibitor): LC3-GFP/RFP puncta per cell, 4 hours incubation, hit = 3 standard deviations above or below mean of negative control wells
Procedure: FIG. 1X6. Use of Cellomics ArrayScan to detect induction of authophagy. […] Wells were scanned for number, area, or intensity of GFP+ or RFP+ puncta per cell using a Cellomics ArrayScan. Negative control (DMF-treated) wells were also measured. Each dot represents the data from a single well.
FIG. 2X6. Chemical library screen for modulation of autophagy. LC3-RFP/GFP HeLa cells were incubated with compounds from the chemical library for 4 hours, then fixed in 0.1% PFA. Wells were scanned using a Cellomics ArrayScan. […] Each dot represents the data from a single well.
FIG. 4X6. […] Wells were scanned using a Cellomics ArrayScan. […] Each dot represents the data from four separate wells, and error bars are standard deviation.
LC3 is a widely-used marker for autophagic vacuoles. HeLa cells stably transduced with LC3-GFP/RFP tandem construct generate fluorescent autophagic puncta, which are either green/yellow (early autophagosomes) or red (late autophagosomes fused with lysosomes, which degrades the GFP). By quantitating the number or total area of fluorescent puncta per cell, we can detect alterations in autophagic flux and regulation. […]
Using the above system, we performed two separate screens on a chemical library. This library contains 1,200 FDA-approved compounds, and represents wide functional and chemical diversity. This library spans four 384-well plates, with 64 wells on each plate with DMSO only as negative controls. […] A hit was defined as 3 standard deviations above or below the mean of the negative control wells on a given plate.

IL-1α = IL-1α release (ELISA) from LPS+IFN-γ stimulated BMM; type: cell-based, murine
IL-1β = IL-1β secretion from LPS-pretreated BMMs (ELISA); type: cell-based, murine; details: pp242 in full medium, 1 h
Procedure: FIG. 1X3. induction of autophagy enhances IL-1β secretion. (A) Atg5fl/fl Cre^− and Atg^5fl/fl Cre^+ bone marrow-derived macrophages (BMMs), pretreated overnight with 100 ng/ml LPS, were stimulated for 1 h with the inflammasome agonist nigericin ([…]) with (Starvation; EBSS) or without (Full; full medium) autophagic induction. Cell culture supernatants were assayed for murine IL-1β by ELISA. Data represent mean values±s.d. (nX3); *Po0.05. (B) LPS-pretreated Atg5fl/fl Cre^− and Atg^5fl/fl Cre^+ BMMs were stimulated with […] nigericin for 1 h in OptiMEM and the release of active caspase-1 and IL-1β was determined by immunoblotting. (C) As in (A), assayed for IL-18. Data represent mean values±s.d. (nX3); *Po0.05. (D) LPS-pretreated BMMs were exposed to alum ([…]) for 1 h with or without autophagic induction by starvation. Secreted IL-1β was measured as in (A). Data represent mean values±s.d. (nX3); *Po0.05. (E) LPS-pretreated BMMs were exposed to silica ([…]) for 1 h with or without autophagic induction by starvation. Secreted IL-1β was measured as in (A). Data represent mean values±s.d. (nX3); *Po0.05. (F) BMMs were transfected with scramble (Scr) control siRNA or siRNAs against ASC and NLRP3. After 48 h following transfection, cells were treated overnight with LPS and subjected to nigericin ([…]) and starvation for 1 h. Data represent mean values±s.d. (nX3); *Po0.05. (G) Immunoblot analysis of ASC and NLRP3 knockdowns. (H) BMMs were transfected with scramble
FIG. 2X3 Autophagic pathway progression promotes secretion of inflammasome substrates. (A, B) LPS-pretreated BMMs were treated with […] nigericin (Nig) and 100 nM bafilomycin A1 (Baf) with (Starvation) or without (Full) autophagic induction for 1 h and secreted IL-1β (A) and IL-18 (B) were measured. Data represent mean values+s.d. (nX3); *Po0.05. (C) LPS-pretreated BMMs were treated with […] of silica and 100 nM bafilomycin A1 (Baf) with (Starvation) or without (Full) autophagic induction for 1 h and secreted IL-1β were measured. Data represent mean values±s.d. (nX3); *Po0.05. (D) Colocalization of cathepsin B with the basal autophagic machinery factor LC3 and IL-1b. Fluorescence; LC3 (green, Alexa488), IL-1β (red, Alexa568), and cathepsin B (blue, Alexa633). BMMs from GFP-LC3 knockin mice were treated with LPS and then analysed for immunofluorescence. (E) Colocalization line tracing analysis from images in (D). (F) LPS-pretreated BMMs were treated with […] nigericin and cathepsin B inhibitor CA-074 Me […] , with (Starvation) or without (Full) autophagic induction, for 1 h and secreted IL-1β was measured. […] (G) LPS-pretreated Atg^5fl/fl Cr^+ and Atg^5fl/fl Cre^− BMMs were stimulated with […] nigericin for 1 h in OptiMEM and release of cathepsin B was determined by immunoblotting. […]

naïve CD4 T cells = assay: In vitro Th17 polarization of naïve CD4 T cells (intracellular IL-17A, flow cytometry); type: cell-based, mice; details: with TGF-β 5 ng/ml and IL-6 20 ng/ml; IL-1α or IL-1β 20 ng/ml, day 4

Row | Molecule | modulation of autophagy (agonist/inducer or antagonist/inhibitor) (LC3-GFP/RFP HeLa cells [2]) | other results
1 | C[C@H]1O[C@@H](O[C@H]2[C@@H](O)C[C@H](O[C@H]3[C@@H](O)C[C@H](O[C@H]4CC[C@@]5(C)[C@H](CC[C@@H]6[C@@H]5C[C@@H](O)[C@]5(C)[C@@H](C7=CC(=O)OC7)CC[C@]65O)C4)O[C@@H]3C)O[C@@H]2C)C[C@H](O)[C@@H]1O [digoxin] |  | modulation of autophagy in combination with mTOR inhibitor (suboptimal pp242) (LC3-GFP/RFP HeLa cells [1]): effective as autophagy modulators in combination
2 | CC(=O)[O-].[Hg+][c]1ccccc1 [phenylmercuric acetate] | antagonists or inhibitors of autophagy | 
3 | CCCCc1cc2ccccc2c(OCCN(C)C)n1 [dimethisoquin] | agonists or inducers of autophagy | 
4 | CC12CC3CC(C)(C1)CC(N)(C3)C2 [memantine] | agonists or inducers of autophagy | 
5 | CNCC(O)c1ccc(OC(=O)C(C)(C)C)c(OC(=O)C(C)(C)C)c1 (stereo not shown) [dipivefrin] | agonists or inducers of autophagy | 
6 | Cc1cccc(C)c1N=C1NCCCS1 [xylazine] |  | modulation of autophagy in combination with mTOR inhibitor (suboptimal pp242) (LC3-GFP/RFP HeLa cells [1]): effective as autophagy modulators in combination
7 | Oc1c(Cl)cc(Cl)c(Cl)c1Cc1c(O)c(Cl)cc(Cl)c1Cl [hexachlorophene] | agonists or inducers of autophagy | 
8 | COC(=O)Nc1nc2cc(C(=O)c3ccc(F)cc3)ccc2[nH]1 [flubendazole] | agonists or inducers of autophagy | 
9 | CN1CCCC(CC2c3ccccc3Sc3ccccc32)C1 (stereo not shown) [metixene] | agonists or inducers of autophagy | 
10 | O=C1NCCN1CCN1CCC(c2cn(-c3ccc(F)cc3)c3ccc(Cl)cc23)CC1 [sertindole] |  | modulation of autophagy in combination with mTOR inhibitor (suboptimal pp242) (LC3-GFP/RFP HeLa cells [1]): effective as autophagy modulators in combination
11 | CC(C)COCC(CN(Cc1ccccc1)c1ccccc1)N1CCCC1 (stereo not shown) [bepridil] | agonists or inducers of autophagy | 
12 | CNCCC=C1c2ccccc2C=Cc2ccccc21 [norcyclobenzaprine] | agonists or inducers of autophagy | 
13 | Cn1cnc(N)c2ncnc1-2 [3-methyladenine] |  | IL-1α secreted (IL-1α; Atg5fl/fl LysM-Cre− BMM, LPS+IFN-γ, 12 h, 50 μg/ml rapamycin, 10 mM 3-MA or 100 nM Bafilomycin A1): significantly increased
14 | CC(C)n1nc(-c2cc3cc(O)ccc3[nH]2)c2c(N)ncnc21 [pp242] |  | suboptimal dose that did not induce autophagy (LC3-GFP/RFP HeLa cells [2]; from pp242 dose response): ~0.06 µM; secretion of IL-1β (IL-1β): increased secretion of IL-1β
15 | O=C(Nc1ccccc1)OCC(CN1CCCCC1)OC(=O)Nc1ccccc1 (stereo not shown) [diperodon] | agonists or inducers of autophagy | 
16 | CCN(CC)CCOc1ccc(C(=C(Cl)c2ccccc2)c2ccccc2)cc1.O=C(O)CC(O)(CC(=O)O)C(=O)O [clomiphene citrate (Z,E)] | agonists or inducers of autophagy | 
17 | CC[N+](C)(CC)CCC[n+]1c(-c2ccccc2)c2cc(N)ccc2c2ccc(N)cc21.[I-].[I-] [propidium iodide] | agonists or inducers of autophagy | 
18 | CCCCC(CC)CN1CN(CC(CC)CCCC)CC(C)(N)C1 (stereo not shown) [hexetidine] |  | modulation of autophagy in combination with mTOR inhibitor (suboptimal pp242) (LC3-GFP/RFP HeLa cells [1]): effective as autophagy modulators in combination
19 | CNCCC=C1c2ccccc2CCc2ccccc21 [nortriptyline] | agonists or inducers of autophagy | 
20 | CN(Cc1cc(Br)cc(Br)c1N)C1CCCCC1 [bromhexine] | agonists or inducers of autophagy | 
21 | COCCCC/C(=N\OCCN)c1ccc(C(F)(F)F)cc1 [fluvoxamine] | agonists or inducers of autophagy | 
22 | N#Cc1c(Cl)c(Cl)c(Cl)c(C#N)c1Cl [tetrachlorisophthalonitrile] | antagonists or inhibitors of autophagy | 
23 | CCCC[C@@H](C=O)NC(=O)[C@H](CC(C)C)NC(=O)[C@H](CC(C)C)NC(C)=O [ALLN] (Ac-Leu-Leu-[Nle]-aldehyde) |  | excess IL-1α production (IL-1α; Atg5fl/fl LysM-Cre+ BMM, ALLN 100 μM): completely abrogated
24 | B1 |  | intracellular levels of IL-17A (naïve CD4 T cells): elevated
